US8133685B2, “AMPK modulation as a method of regulating stem cell and cancer stem cell proliferation, self-renewal and differentiation” (Washington University, priority 2008, dated 2012)

Key:
[1] = system: Neural Stem and Progenitor cells (NPCs); experiment: NPC proliferation: count of trypan blue negative (live) cells after 48 hours of growth; format: cell-based, mouse; conditions: E12.5 forebrain wildtype NPCs, vs DMSO, p<0.001
Description: FIG. 26. […] Embryonic day 12.5 forebrain wildtype NPCs were cultured for 4 days and seeded as single cells in presence of DMSO (control), or the AMPK inhibitors Compound C (10 μM) and Adenine 9-β-D-arabinofuranoside (Ara A 1 mM). Following 48 hours of growth in medium supplemented with EGF ([…]) and bFGF ([…]), neurospheres were trypsinized and trypan blue negative (live) cells were counted on a hemocytometer. * p<0.001
Neurospheres were dissected from E12.5 CNS telencephalic lobes and cultured in neurobasal medium supplemented with B27 and N2, as described previously (Dasgupta, B. and Gutmann, D. H., J. Neurosci. 25, 5584-5594, 2005). […] At each time point, resulting neurospheres were trypsinized and counted on a hemocytometer. For self-renewal assays, single neurospheres were picked up by pipette and neurosphere diameter was measured individually under microscope. Ten similar-sized neurospheres of each genotype were triturated individually before plating, and the number of resulting secondary neurospheres generated per primary neurosphere was counted after 6 days. Neurosphere diameters were measured using Metamorph software. […] Briefly, NPCs were pulse labeled with […] CFSE at 37° C. for 15 min, washed, and one-half of the cells were analyzed by FACS, while the other half was analyzed after 4 days of growth. […]

Rb-E2F1 = experiment: Immunoprecipitation with Rb antibody and Western blot with E2F1 antibody from NPCs; format: cell-based, mouse; set-up: dose or concentration left out as unconfirmed; conditions: NPCs grown in indicated glucose concentration
Description: FIG. 56. This figure illustrates that energy restriction and growth factor signaling utilize the AMPK-Rb axis to enhance NPC proliferation. (A) Immunoprecipitation assay using Rb antibody and Western blot with E2F1 antibody from NPCs grown in the indicated glucose concentration in the absence or presence of CC ([…]). (B) Immunohistochemistry of saggital sections of E14.5 wildtype and β1−/− body using pHistoneH3 antibody (red).
(§1) Cultured NPCs or MEFs were lysed with MAPK lysis buffer (20 mM Tris-HCL, pH 7.5, 150 mM, NaCl, 1 mM EGTA, 1 mM EDTA, 1% TritonX-100, 2.5 mM sodium pyrophosphate, 1 mM β-glycerophosphate, 1 mM sodium vanadate, 1 mM PMSF, 1 mM DTT and protease inhibitor cocktail). […] The immunoprecipitated proteins were analyzed by standard immunoblot analysis. […]
AMPK is integrally involved in regulating cellular energy homeostasis and is activated by low cellular ATP levels, such as occurs by limiting oxygen or glucose supplies or exercise, conditions that enhance proliferative capacity of stem cells (Burgers et al., Exp. Brain Res. 188, 33-43, 2008; Fu et al., Diabetologia 49, 1027-1038, 2006; Stolzing et al., Rejuvenation Res. 9, 31-35, 2006). To explore whether the proliferative effects of glucose restriction are manifested through activation of the AMPK-Rb axis, we monitored the growth of WT NPCs cultured in 2.5-25 mM (the amount present in neurobasal medium) glucose for 48 hr. […]

AMPK = experiment: Immunoblot of pAMPK and pRb in WT NPCs after growth factor (EGF and FGF) withdrawal and re-administration; format: cell-based, mouse; conditions: growth factors withdrawn 2 h, re-administered 1 h in presence of compound C (CC; 5 mM per FIG. 54 legend)
From the text: FIG. 54. This figure illustrates that energy restriction and growth factor signaling utilize the AMPK-Rb axis to enhance NPC proliferation. […] (B and C) Proliferation assay of WT NPCs (B) and β1−/−NPCs (C) cultured for 48 hr under glucose-limiting conditions (Cont=25 Mm glucose, which is the amount in neurobasal medium). Data are representative of three independent experiments (#p=0.07; *p % 0.005). Error bars indicate SD. (D and E) Densitometric analysis using phospho-specific AMPKα^Thr172, Rb^Ser800/804, ACC^Ser79, and pan AMPKα, Rb, and ACC antibodies. AU, arbitrary units.
as §1, with “cocktail). AMPK was immunoprecipitated with AMPKα1/2 antibody (Cell Signaling Technology), Rb was immunoprecipitated with Rb antibody (Santa Cruz Biotechnology, Santa Cruz, Calif.) and cyclinD1/D2 (associated with CDK4/6) was immunoprecipitated with CyclinD1 and CyclinD2 antibodies (Cell Signaling Technology).” for “cocktail).”

AMPK holoenzyme = experiment: Nonradioactive in vitro kinase assay: immunoprecipitated AMPK holoenzyme phosphorylating recombinant Rb fusion protein (residues 701-928); format: biochemical, mouse; conditions: AMPK immunoprecipitated from WT NPCs, phospho-Rb800/804 immunoblot
Description: Nonradioactive in vitro kinase assay was performed as previously described (Lee et al., Nature 447, 1017-1020, 2007), with minor modifications. Briefly, WT NPCs were lysed with MAPK buffer, and AMPK was immunoprecipitated from WT NPCs with AMPKα1/2 antibody, washed with a buffer containing 10 mM Tris-Hcl (pH 7.5) and 0.5 M LiCl, and suspended in kinase buffer containing 0.5 mM ATP. CyclinD1/D2 (associated with CDK4/6) was immunoprecipitated with cyclinD1 and cyclinD2 antibodies. Reactions were carried out at 30° C. for 1 hr by adding RB-C fusion protein (residues 701-928; Cell Signaling Technology, Beverly, Mass.) to the reaction mix. Reaction was terminated by adding 6× Laemmli buffer and boiling for 5 min. Samples were resolved in 10% SDS-PAGE, and Western blot analysis was performed with phospho-RbSer^800/804 (Ser^807/811 in human) antibody (Cell Signaling Technology).
The CDK-cyclin D complex is known to phosphorylate Rb at Ser804. […] CDK4/6, which exist in complexes with cyclinD1/D2, were immunoprecipitated using cyclin D1/2 antibodies, and the activity was measured by nonradioactive in vitro kinase assays using bacterially produced Rb fusion protein (residues 701-928) as the substrate. […] In these experiments, phosphorylation was monitored by immunoblot using phosphor-Rb800/804 antibody. […]

WT NPCs = experiment: Proliferation assay of WT NPCs cultured 48 hr under glucose-limiting conditions; format: cell-based, mouse; conditions: 2.5-25 mM glucose
Description: FIG. 54. This figure illustrates that energy restriction and growth factor signaling utilize the AMPK-Rb axis to enhance NPC proliferation. (A) Densitometric analysis of WT NPCs using indicated antibodies after 2-hr growth factor stimulation in the presence or absence of AMPK inhibitor compound C (CC; […]). (B and C) Proliferation assay of WT NPCs (B) and β1−/−NPCs (C) cultured for 48 hr under glucose-limiting conditions (Cont=25 Mm glucose, which is the amount in neurobasal medium). Data are representative of three independent experiments (#p=0.07; *p % 0.005). Error bars indicate SD. […]
Neurospheres were dissected from E12.5 CNS telencephalic lobes and cultured in neurobasal medium supplemented with B27 and N2, as described previously (Dasgupta, B. and Gutmann, D. H., J. Neurosci. 25, 5584-5594, 2005). […] At each time point, resulting neurospheres were trypsinized and counted on a hemocytometer. For self-renewal assays, single neurospheres were picked up by pipette and neurosphere diameter was measured individually under microscope. Ten similar-sized neurospheres of each genotype were triturated individually before plating, and the number of resulting secondary neurospheres generated per primary neurosphere was counted after 6 days. Neurosphere diameters were measured using Metamorph software. […]

Row | SMILES | proliferation of NPCs (live cell count) ([1]; 1 mM) | proliferation of NPCs (live cell count) ([1]; 10 μM) | Rb sequestration of E2F1 (Rb-bound E2F1) (Rb-E2F1) | increase in phosphoAMPK (pAMPK Thr172) on EGF and FGF re-administration (AMPK) | increase in phosphoRb (Ser800/804) on EGF and FGF re-administration (AMPK) | AMPK phosphorylation of Rb at Ser804 (AMPK holoenzyme) | NPC growth stimulation by low glucose (WT NPCs) | neurosphere growth (WT NPCs)
1 | Nc1ncnc2c1ncn2[C@@H]1O[C@H](CO)[C@@H](O)[C@@H]1O [Ara A, Adenine 9-β-D-arabinofuranoside] | drastically reduces proliferation | – | – | – | – | – | – | –
2 | c1cc(-c2cnn3cc(-c4ccc(OCCN5CCCCC5)cc4)cnc23)ccn1 [Compound C, 6-[4-(2-piperidin-1-ylethoxy)-phenyl]-3-pyridin-4-ylpyrazolo[1,5-α]pyrimidine] | – | drastically reduces proliferation | higher levels | no increase | no increase | could be inhibited | not observed | severely inhibited
